Assay results as given in patent US9834550B2, “Pyridopyrimidinone compounds for modulating the catalytic activity of histone lysine demethylases (KDMs)” (Dong-A Socio Holdings Co., Ltd., priority 2014, dated 2017).

molecular target: T1, Recombinant human JARID1B/KDM5B (Homo sapiens, UniProt Q9UGL1); assay: LANCE Ultra TR-FRET demethylase assay with FLAG-tagged JARID1B; assay type: biochemical; details: 100 nM compound; 500 nM biotinylated H3K4me3 peptide substrate
T1 construct: purchased Active Motif 31432; host or cells: Sf9 insect cells
Text: FLAG-tagged JARID1B (also known as KDM5B) protein was screened against more than 170 compounds. For this compound screening, LANCE Ultra time-resolved fluorescence resonance energy transfer (TR-FRET) assay was employed using an europoium (Eu)-labeled antibody that can specifically recognize mono- or dimethylated peptides (H3K4me2/1) and ULight-streptavidin (ULight-SA), a small molecule fluorescent dye. When irradiated at 340 nm, the energy from the Eu donor is transferred to the ULight acceptor dye which, in turn, emits light primarily at 665 nm. The ratio between the intensity of primary emission at 665 nm and that of secondary emission at 590 nm was used to quantify the level of lysine methylation. As JARID1B removes more methyl moieties from tri-methylated substrate peptides (H3K4me3), the ratio increases until the enzyme reaction is terminated. In case, therefore, the compounds disrupt the enzymatic activity completely, the ratio becomes equal to a background value.
Recombinant human JARID1B/KDM5B (accession number NP_006609) of molecular weight 179.9 KDa was expressed in Sf9 insect cells and contains an N-terminal FLAG tag. The enzyme was obtained from Active Motif (Catalog No. 31432). The tri-methylated histone substrate peptide of purity greater than 95% was a synthetic peptide in which the first 21 amino acids correspond to the human histone H3 sequence with three extra amino acids and a biotin motif (GGK-biotin) linked to the C-terminus [sequence: ART-K (Me3)-QTARKSTGGKAPRKQLA-GGK-biotin-OH], (AnaSpec, Fremont, Calif. Catalog. No. ANA-1413). The reference inhibitory compound tranylcypromine (or trans-2-phenylcyclopropylamine hydrochloride, also known as, 2-PCPA) was purchased from Sigma (St. Louis, Mo. Cat. no. P8511). ULight-labeled streptavidin (ULight-SA, Catalog no. TRF0102), Eu-W1024-labeled anti-methyl-Histone H3 Lysine 4 (H3K4me1-2) Antibody (Catalog no. TRF0402), and LANCE detection buffer 10× (Catalog no. CR97-100) were obtained from PerkinElmer (Montreal, Quebec, Canada). The TR-FRET experiments were carried out in white, low-volume 384-wellplates purchased from PerkinElmer (ProxiPlate-384 Plus, Catalog no. 6008280).
The TR-FRET signal was measured in the presence both of the bio-H3K4me3 peptide and FLAG-JARID1B by detecting any H3K4me2/1 peptide produced in the assay system. Assays using only the bio-H3K4me2 peptide were served as a positive control. Robust enzymatic progressions were observed by using JARID1B at concentrations ranging from 10 to 30 nM. In a typical TR-FRET experiment, JARID1B was pre-incubated with or without 20 uM, 1 uM, or 0.1 uM of test-compounds (containing 1% DMSO final) for […]. The enzymatic reactions were initiated by the addition of 500 nM biotinylated H3K4me3 peptide substrate plus 500 uM of 2-OG, 25 uM Fe(II) and 2 mM ascorbate. The reaction buffer also contained 50 mM Hepes (pH7.5), 0.01% (v/v) Tween 20, and 50 mM NaCl. The reaction mixture was incubated for […] at room temperature before reading on an EnVision plate reader (PerkinElmer, Waltham, Mass.).

T1 sequence (Q9UGL1 whole entry): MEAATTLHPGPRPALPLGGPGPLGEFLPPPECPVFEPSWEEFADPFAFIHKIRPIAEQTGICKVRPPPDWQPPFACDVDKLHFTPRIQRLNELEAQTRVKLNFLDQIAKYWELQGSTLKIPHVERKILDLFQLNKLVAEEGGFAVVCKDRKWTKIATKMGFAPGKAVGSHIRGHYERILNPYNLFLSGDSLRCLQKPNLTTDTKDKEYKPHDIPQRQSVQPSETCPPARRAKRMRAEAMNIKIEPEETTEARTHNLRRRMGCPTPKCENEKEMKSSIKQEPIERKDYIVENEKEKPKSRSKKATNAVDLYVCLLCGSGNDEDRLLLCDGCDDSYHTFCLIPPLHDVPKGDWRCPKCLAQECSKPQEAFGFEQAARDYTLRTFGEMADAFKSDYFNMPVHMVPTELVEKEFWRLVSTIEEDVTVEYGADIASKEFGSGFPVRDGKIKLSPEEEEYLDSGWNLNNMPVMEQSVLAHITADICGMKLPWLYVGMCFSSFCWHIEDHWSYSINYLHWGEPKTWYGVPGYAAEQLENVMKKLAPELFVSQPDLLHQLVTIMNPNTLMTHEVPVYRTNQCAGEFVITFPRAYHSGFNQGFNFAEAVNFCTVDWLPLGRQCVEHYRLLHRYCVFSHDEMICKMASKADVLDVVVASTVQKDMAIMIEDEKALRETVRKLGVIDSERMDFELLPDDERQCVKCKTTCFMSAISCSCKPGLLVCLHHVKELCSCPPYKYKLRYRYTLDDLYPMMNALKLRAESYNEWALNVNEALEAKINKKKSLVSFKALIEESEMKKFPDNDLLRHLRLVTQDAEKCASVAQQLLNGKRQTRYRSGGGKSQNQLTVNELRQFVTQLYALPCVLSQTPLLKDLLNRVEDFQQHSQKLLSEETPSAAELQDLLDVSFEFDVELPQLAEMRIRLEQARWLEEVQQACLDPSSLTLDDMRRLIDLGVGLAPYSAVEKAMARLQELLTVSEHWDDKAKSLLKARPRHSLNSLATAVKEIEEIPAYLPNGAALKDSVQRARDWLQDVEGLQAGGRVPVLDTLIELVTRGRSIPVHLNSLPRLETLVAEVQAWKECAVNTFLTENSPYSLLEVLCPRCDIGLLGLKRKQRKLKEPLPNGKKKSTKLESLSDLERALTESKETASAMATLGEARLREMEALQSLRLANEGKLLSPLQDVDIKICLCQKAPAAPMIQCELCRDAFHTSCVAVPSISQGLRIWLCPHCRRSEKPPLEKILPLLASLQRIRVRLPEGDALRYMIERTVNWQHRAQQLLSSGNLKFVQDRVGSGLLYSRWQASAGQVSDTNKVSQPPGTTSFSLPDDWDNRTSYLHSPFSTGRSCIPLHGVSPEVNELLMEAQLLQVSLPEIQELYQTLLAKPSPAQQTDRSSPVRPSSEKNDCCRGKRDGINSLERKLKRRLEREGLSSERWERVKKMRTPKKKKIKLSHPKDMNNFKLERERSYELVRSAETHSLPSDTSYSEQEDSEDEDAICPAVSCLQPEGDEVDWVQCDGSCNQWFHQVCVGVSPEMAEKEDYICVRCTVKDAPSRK

Compound | inhibition at 0.1 µM [%]
O=c1[nH]c(COc2cccc(Cl)c2Cl)nc2c(CNCC3CCNCC3)nccc12 [Example 113, 2-((2,3-dichlorophenoxy)methyl)-8-(((piperidin-4-ylmethyl)amino)methyl)pyrido[3,4-d]pyrimidin-4(3H)-one] | 20 to 50
O=c1[nH]c(COc2ccc(Cc3ccccc3)cc2)nc2c(CNC[C@H]3CCCO3)nccc12 [Example 148, (R)-2-((4-benzylphenoxy)methyl)-8-((((tetrahydrofuran-2-yl)methyl)amino)methyl)pyrido[3,4-d]pyrimidin-4(3H)-one] | 20 to 50
O=c1[nH]c(COc2ccc(Cc3ccccc3)cc2)nc2c(CNCCCCN3CCCC3)nccc12 [Example 143, 2-((4-benzylphenoxy)methyl)-8-(((4-(pyrrolidin-1-yl)butyl)amino)methyl)pyrido[3,4-d]pyrimidin-4(3H)-one] | 20 to 50
CN1CCC(CNCc2nccc3c(=O)[nH]cnc23)C1 (centres unmarked) [Example 92, 8-((((1-methylpyrrolidin-3-yl)methyl)amino)methyl)pyrido[3,4-d]pyrimidin-4(3H)-one] | 20 to 50
Cc1ccccc1OCc1nc2c(CNCC3CCNCC3)nccc2c(=O)[nH]1 [Example 118, 8-(((piperidin-4-ylmethyl)amino)methyl)-2-((o-tolyloxy)methyl)pyrido[3,4-d]pyrimidin-4(3H)-one] | 20 to 50
O=c1[nH]c(COc2ccc3c(c2)CCC3)nc2c(CNCC3CCNCC3)nccc12 [Example 139, 2-(((2,3-dihydro-1H-inden-5-yl)oxy)methyl)-8-(((piperidin-4-ylmethyl)amino)methyl)pyrido[3,4-d]pyrimidin-4(3H)-one] | 20 to 50
O=c1[nH]c(COc2cc(C(F)(F)F)ccc2Cl)nc2c(CNCC3CCNCC3)nccc12 [Example 112, 2-((2-chloro-5-(trifluoromethyl)phenoxy)methyl)-8-(((piperidin-4-ylmethyl)amino)methyl)pyrido[3,4-d]pyrimidin-4(3H)-one] | 20 to 50
O=c1[nH]c(COc2ccncc2)nc2c(CNCC3CCN(Cc4ccccc4)CC3)nccc12 [Example 110, 8-((((1-benzylpiperidin-4-yl)methyl)amino)methyl)-2-((pyridin-4-yloxy)methyl)pyrido[3,4-d]pyrimidin-4(3H)-one] | > 50
O=c1[nH]c(COc2ccc(Cc3ccccc3)cc2)nc2c(CNCC3CCN(Cc4ccccc4)CC3)nccc12 [Example 111, 2-((4-benzylphenoxy)methyl)-8-((((1-benzylpiperidin-4-yl)methyl)amino)methyl)pyrido[3,4-d]pyrimidin-4(3H)-one] | > 50
O=c1[nH]c(COc2ccccc2Br)nc2c(CNCC3CCNCC3)nccc12 [Example 117, 2-((2-bromophenoxy)methyl)-8-(((piperidin-4-ylmethyl)amino)methyl)pyrido[3,4-d]pyrimidin-4(3H)-one] | 20 to 50
Cc1ccc(OCc2nc3c(CNCC4CCNCC4)nccc3c(=O)[nH]2)cc1 [Example 120, 8-(((piperidin-4-ylmethyl)amino)methyl)-2-((p-tolyloxy)methyl)pyrido[3,4-d]pyrimidin-4(3H)-one] | 20 to 50
O=c1[nH]c(COc2cccc(CNCc3ccccc3)c2)nc2cnccc12 [Example 42, 2-((3-((benzylamino)methyl)phenoxy)methyl)pyrido[3,4-d]pyrimidin-4(3H)-one] | < 20
CCc1ccc(OCc2nc3c(CNCC4CCNCC4)nccc3c(=O)[nH]2)cc1 [Example 135, 2-((4-ethylphenoxy)methyl)-8-(((piperidin-4-ylmethyl)amino)methyl)pyrido[3,4-d]pyrimidin-4(3H)-one] | 20 to 50
O=c1[nH]cnc2c(CNCC3CCCN(Cc4ccccc4)C3)nccc12 (centres unmarked) [Example 101, 8-((((1-benzylpiperidin-3-yl)methyl)amino)methyl)pyrido[3,4-d]pyrimidin-4(3H)-one] | 20 to 50
CN1CCC(CNCc2nccc3c(=O)[nH]c(COc4ccc(Cc5ccccc5)cc4)nc23)CC1 [Example 152, 2-((4-benzylphenoxy)methyl)-8-((((1-methylpiperidin-4-yl)methyl)amino)methyl)pyrido[3,4-d]pyrimidin-4(3H)-one] | > 50

The next lines start with the values.

inhibition at 0.1 µM [%] | Compound
20 to 50 | CN1CCC(CNCc2nccc3c(=O)[nH]c(C4Cc5ccccc5O4)nc23)CC1 (centres unmarked) [Example 198, 2-(2,3-dihydrobenzofuran-2-yl)-8-((((1-methylpiperidin-4-yl)methyl)amino)methyl)pyrido[3,4-d]pyrimidin-4(3H)-one]
< 20 | O=c1[nH]c(C2CCOC2)nc2c(CNCC3CCNCC3)nccc12 (centres unmarked) [Example 195, 8-(((piperidin-4-ylmethyl)amino)methyl)-2-(tetrahydrofuran-3-yl)pyrido[3,4-d]pyrimidin-4(3H)-one]
< 20 | O=C(CC1CCNCC1)NCc1nccc2c(=O)[nH]c(COc3ccc(F)c(Cl)c3)nc12 [Example 240, N-((2-((3-chloro-4-fluorophenoxy)methyl)-4-oxo-3,4-dihydropyrido[3,4-d]pyrimidin-8-yl)methyl)-2-(piperidin-4-yl)acetamide]
> 50 | O=c1[nH]c(COc2ccc(F)c(Cl)c2)nc2c(CNC[C@H]3CNCCO3)nccc12 [Example 190, (S)-2-((3-chloro-4-fluorophenoxy)methyl)-8-(((morpholin-2-ylmethyl)amino)methyl)pyrido[3,4-d]pyrimidin-4(3H)-one]
20 to 50 | O=C(CNCc1nccc2c(=O)[nH]c(COc3ccc(F)c(Cl)c3)nc12)N1CCCC1 [Example 223, 2-((3-chloro-4-fluorophenoxy)methyl)-8-(((2-oxo-2-(pyrrolidin-1-yl)ethyl)amino)methyl)pyrido[3,4-d]pyrimidin-4(3H)-one]
> 50 | N[C@H]1CCN(C(=O)CNCc2nccc3c(=O)[nH]c(COc4ccc(F)c(Cl)c4)nc23)C1 [Example 229, (S)-8-(((2-(3-aminopyrrolidin-1-yl)-2-oxoethyl)amino)methyl)-2-((3-chloro-4-fluorophenoxy)methyl)pyrido[3,4-d]pyrimidin-4(3H)-one]
20 to 50 | O=c1[nH]c(COc2ccc(F)c(Cl)c2)nc2c(CNCc3ccccn3)nccc12 [Example 170, 2-((3-chloro-4-fluorophenoxy)methyl)-8-(((pyridin-2-ylmethyl)amino)methyl)pyrido[3,4-d]pyrimidin-4(3H)-one]
> 50 | O=C(CNCc1nccc2c(=O)[nH]c(COc3ccc(F)c(Cl)c3)nc12)N[C@H]1CC[C@H](N2CCCC2)O1 (relative stereo) [Example 233, 2-(((2-((3-chloro-4-fluorophenoxy)methyl)-4-oxo-3,4-dihydropyrido[3,4-d]pyrimidin-8-yl)methyl)amino)-N-(trans-5-(pyrrolidin-1-yl)tetrahydrofuran-2-yl)acetamide]
20 to 50 | O=c1[nH]c(COc2ccc(F)c(Cl)c2)nc2c(CNCc3ccnc(Cl)c3)nccc12 [Example 182, 2-((3-chloro-4-fluorophenoxy)methyl)-8-((((2-chloropyridin-4-yl)methyl)amino)methyl)pyrido[3,4-d]pyrimidin-4(3H)-one]
> 50 | O=C(CNCc1nccc2c(=O)[nH]c(COc3ccc(F)c(Cl)c3)nc12)N[C@@H]1CCNC1 [Example 239, (R)-2-(((2-((3-chloro-4-fluorophenoxy)methyl)-4-oxo-3,4-dihydropyrido[3,4-d]pyrimidin-8-yl)methyl)amino)-N-(pyrrolidin-3-yl)acetamide]
> 50 | CN1CCC(CNCc2nccc3c(=O)[nH]c(COc4ccc(F)c(Cl)c4)nc23)C1 (centres unmarked) [Example 159, 2-((3-chloro-4-fluorophenoxy)methyl)-8-((((1-methylpyrrolidin-3-yl)methyl)amino)methyl)pyrido[3,4-d]pyrimidin-4(3H)-one]
